Experiment [1] deals with T1, extracellular domain of GC-A recombinant protein (Homo sapiens, UniProt P16066).
T1 construct: The extracellular domain of GC-A recombinant protein with a C-terminal His-tag (MyBioSource, Inc., San Diego, CA); purchased MyBioSource, Inc., San Diego, CA
T1 sequence (P16066 33-473 limits assumed): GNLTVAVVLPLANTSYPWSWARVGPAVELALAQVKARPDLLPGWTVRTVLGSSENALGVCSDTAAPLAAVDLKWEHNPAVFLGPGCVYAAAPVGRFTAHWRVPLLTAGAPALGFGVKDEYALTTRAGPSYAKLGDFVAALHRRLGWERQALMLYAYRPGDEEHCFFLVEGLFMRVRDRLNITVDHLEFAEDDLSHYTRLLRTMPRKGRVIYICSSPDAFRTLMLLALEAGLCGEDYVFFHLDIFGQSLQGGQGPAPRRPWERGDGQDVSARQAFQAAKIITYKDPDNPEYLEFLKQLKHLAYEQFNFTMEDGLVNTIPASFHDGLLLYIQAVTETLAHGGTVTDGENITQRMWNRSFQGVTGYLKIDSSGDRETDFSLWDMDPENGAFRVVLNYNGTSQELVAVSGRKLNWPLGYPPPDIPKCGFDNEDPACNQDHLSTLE
As to the kind of experiment: GC-A binding by surface plasmon resonance (SPR). The following applies: SPR binding curves, FIG. 7. A general note: Surface plasmon resonance follows binding to a sensor surface in real time, without labels.
Method: Surface plasmon resonance (SPR) measurements are performed at 25° C. on a BI-4500 SPR instrument (Biosensing Instrument Inc., Tempe, AZ). The extracellular domain of GC-A recombinant protein with a C-terminal His-tag (MyBioSource, Inc., San Diego, CA) is immobilized onto a Ni-NTA sensor chip (Biosensing Instrument Inc., Tempe, AZ) using 400 μM nickel sulfate in de-iron water as linker, as instructed by the instrument manual. Then, 40 μg/ml of recombinant GC-A is immobilized on the Ni-NTA sensor chip. […] Data are collected as sensorgrams. Binding kinetics are calculated from sensorgrams using the BI-Data Analysis Program (Biosensing Instrument, Tempe, AZ).

Another experiment has as its target T2, human GC-A (Homo sapiens, UniProt P16066).
T2 construct: host or cells: HEK293
T2 sequence (P16066 33-1061): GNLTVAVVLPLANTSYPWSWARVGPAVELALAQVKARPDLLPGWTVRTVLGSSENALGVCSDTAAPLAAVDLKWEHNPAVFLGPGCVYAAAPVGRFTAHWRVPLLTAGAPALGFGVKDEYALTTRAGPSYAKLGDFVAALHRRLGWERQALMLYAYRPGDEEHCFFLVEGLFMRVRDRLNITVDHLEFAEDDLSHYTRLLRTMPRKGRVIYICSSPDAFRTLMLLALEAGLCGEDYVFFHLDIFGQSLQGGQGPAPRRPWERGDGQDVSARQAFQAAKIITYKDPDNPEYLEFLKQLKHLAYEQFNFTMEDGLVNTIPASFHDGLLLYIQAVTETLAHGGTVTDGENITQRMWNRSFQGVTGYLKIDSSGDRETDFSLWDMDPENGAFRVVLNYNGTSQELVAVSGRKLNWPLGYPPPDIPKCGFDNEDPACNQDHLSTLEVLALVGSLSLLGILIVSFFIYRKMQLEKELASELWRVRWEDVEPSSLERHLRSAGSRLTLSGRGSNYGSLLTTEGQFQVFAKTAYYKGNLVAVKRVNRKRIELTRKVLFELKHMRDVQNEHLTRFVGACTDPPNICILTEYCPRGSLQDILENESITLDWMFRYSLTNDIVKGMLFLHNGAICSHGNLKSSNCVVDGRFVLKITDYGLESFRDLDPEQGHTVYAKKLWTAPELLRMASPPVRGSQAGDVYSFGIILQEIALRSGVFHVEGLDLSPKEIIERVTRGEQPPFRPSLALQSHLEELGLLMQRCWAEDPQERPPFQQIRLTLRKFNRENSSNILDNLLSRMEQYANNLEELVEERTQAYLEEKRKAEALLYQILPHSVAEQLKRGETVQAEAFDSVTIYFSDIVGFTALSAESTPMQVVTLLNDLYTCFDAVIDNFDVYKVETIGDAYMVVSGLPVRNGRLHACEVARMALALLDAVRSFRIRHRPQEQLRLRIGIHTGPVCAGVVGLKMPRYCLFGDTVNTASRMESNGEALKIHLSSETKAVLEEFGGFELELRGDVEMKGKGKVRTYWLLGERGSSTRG
As to the kind of experiment: cGMP production over 6 hours in HEK/GCA cells. The experiment is classed as cell-based. The following applies: 10^−8 M, FIG. 2. The method, then:
HEK293 cells stably transfected with human GC-A (cDNA clones from Origene, Rockville, MD) using Lipofectamine (Invitrogen, Grand Island, NY), are developed. Receptor overexpression is verified with immunofluorescence and western blotting. GC-A-transfected HEK293 (HEK/GCA) cells are maintained in Dulbecco's modified Eagle's medium (DMEM) supplemented with 10% fetal bovine serum (FBS), 100 U/ml penicillin, 100 U/ml streptomycin and 250 μg/ml G418.
Two in vitro cGMP assays are performed. Briefly, HEK/GCA cells are seeded in 48-well plates and cultured overnight to 80-90% confluency. The treatment buffer used in all experiments comprises Hank's Balanced Salt Solution (HBSS), 0.1% bovine serum albumin (BSA), 2 mM HEPES, and 0.5 mM 3-isobutyl-1-methylxanthine (IBMX, a non-specific phosphodiesterase inhibitor) (Sigma, St. Louis, MO).
After treatment, all cells are washed with phosphate buffered solution (PBS) once and lysed with 0.1M HCl.

Experiment [2] deals with Human cardiomyocytes (HCM). As to the kind of experiment: Human cardiomyocyte real-time apoptosis analysis (staurosporine-induced, Caspase-3/7 imaging). Format: cell-based. The following applies: 0.05 μM staurosporine, 90 hours, FIG. 6. The procedure: HCM cells are seeded in 96-well plate at approximately 80% confluency. Cells are treated with various concentrations of staurosporine (SP) to induce apoptosis. Based on the dose response curve, 0.05 μM of SP is selected to induce apoptosis in HCM.
Plates are then transferred to a time-lapsed, live imaging system IncuCyte S3 (Essen BioScience, Ann Arbor, MI) for apoptosis monitoring every 2 hours for a total of 90 hours. All treatment groups are performed in quintuplicates and repeated twice. Images are collected using the IncuCyte S3 Live-Cell Analysis System Software (Essen Bioscience, Ann Arbor, MI), and the data are analyzed for the Green Object Area of apoptotic bodies per well.

Bridge positions count the residues as written; N and C are the ends.

As for “H-RALLTAPRSLRRSSCFGHKIDRINHVSNLGCNSFRYRITAREDKQGWA-OH (disulfide 15-31) [CRRL 191]”, the “binding for the GC-A receptor compared to ANP and MANP” value in experiment [1] is reported as “greater binding”. The “GC-A activation / cGMP production up to about 30 minutes” value on human GC-A is on record as “increases in cGMP production at the same rate”. In addition, the “GC-A activation / cGMP production after 30 minutes” value at human GC-A (up to 6 hours) was “continues to increase up to at least 6 hours”. Also, the entries for the “cardiomyocyte apoptosis induced by SP” value in experiment [2] (10^−6 M), in experiment [2] (10^−8 M) and in experiment [2] (10^−10 M) were “greatest effect on reducing cardiomyocyte apoptosis”, “reduced cardiomyocyte apoptosis” and “reduced cardiomyocyte apoptosis”, respectively.

Source of the values: US20240116990A1, “Compositions and Methods of Treatment Using CRRL 191” (Mayo Foundation for Medical Education and Research, priority 2022, published 2024).
